Test results from US9394285B2 (Pfizer Inc., priority 2013, dated 2016).

How the values were obtained:
[1] = molecular target: human AMPK (full-length γ1, β1 and α1 subunits) (Homo sapiens (Human), UniProt Q13131+Q9Y478); assay: AMPK in vitro biochemical assay (33P-based, SAMS peptide, PP2A dephosphorylation); conditions: for EC50: activation of phosphorylated AMPK, 33P-ATP, SAMS peptide, PP2A treatment, 4-parameter fit; for Emax: counts as % of positive control wells (enzyme, allosteric activator or AMP, PP2A and substrate), read-out: Maximum
Outline: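 Phosphorylated full-length α1β1γ1 AMPK (E. coli-expressed, His-purified, gel-filtered) preincubated 15 min RT with compound in HEPES pH 7.5, 10 mM MgCl2 buffer, then PP2A added to dephosphorylate pThr172.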

Sequence of human AMPK (full-length γ1, β1 and α1 subunits) (Q13131 whole entry): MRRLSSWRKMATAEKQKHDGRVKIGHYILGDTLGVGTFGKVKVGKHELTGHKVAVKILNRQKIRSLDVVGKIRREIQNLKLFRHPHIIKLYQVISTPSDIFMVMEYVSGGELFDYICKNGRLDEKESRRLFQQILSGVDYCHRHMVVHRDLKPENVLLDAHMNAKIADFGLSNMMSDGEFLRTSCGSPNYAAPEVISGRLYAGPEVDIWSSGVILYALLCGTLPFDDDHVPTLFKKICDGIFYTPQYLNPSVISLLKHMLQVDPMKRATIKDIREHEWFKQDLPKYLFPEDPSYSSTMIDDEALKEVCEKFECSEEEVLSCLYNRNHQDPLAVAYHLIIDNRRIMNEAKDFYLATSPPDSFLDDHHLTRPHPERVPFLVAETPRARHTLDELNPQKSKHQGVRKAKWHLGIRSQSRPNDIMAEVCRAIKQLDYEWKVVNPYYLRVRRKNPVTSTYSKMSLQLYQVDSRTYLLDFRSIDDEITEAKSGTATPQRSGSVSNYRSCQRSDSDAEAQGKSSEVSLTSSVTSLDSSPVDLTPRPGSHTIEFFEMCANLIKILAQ
Sequence of human AMPK (full-length γ1, β1 and α1 subunits) (Q9Y478 whole entry): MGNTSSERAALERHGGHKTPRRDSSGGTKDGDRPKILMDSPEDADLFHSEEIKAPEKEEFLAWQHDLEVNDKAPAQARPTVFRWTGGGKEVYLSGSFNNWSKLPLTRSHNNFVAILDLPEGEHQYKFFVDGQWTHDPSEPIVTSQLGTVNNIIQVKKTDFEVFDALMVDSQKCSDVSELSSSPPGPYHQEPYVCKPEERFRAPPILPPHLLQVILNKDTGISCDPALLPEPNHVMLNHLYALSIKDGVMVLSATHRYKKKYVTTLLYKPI
Sequence of human AMPK (full-length γ1, β1 and α1 subunits) (P54619 whole entry partner): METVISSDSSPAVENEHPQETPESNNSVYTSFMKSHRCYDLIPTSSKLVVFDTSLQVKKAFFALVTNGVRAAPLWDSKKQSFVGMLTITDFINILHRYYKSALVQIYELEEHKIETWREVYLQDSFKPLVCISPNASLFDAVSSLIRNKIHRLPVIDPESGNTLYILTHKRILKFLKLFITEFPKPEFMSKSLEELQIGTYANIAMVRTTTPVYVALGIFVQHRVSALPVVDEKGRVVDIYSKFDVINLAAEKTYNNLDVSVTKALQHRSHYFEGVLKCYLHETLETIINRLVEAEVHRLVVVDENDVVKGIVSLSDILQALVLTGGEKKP

Row | SMILES | EC50 [1] | Emax [1] | melting point
1 | O=C(O)c1c[nH]c2cc(Cl)c(-c3ccc(OCCCO)cc3)cc12 [Example 30, 6-chloro-5-[4-(3-hydroxypropoxy)phenyl]-1H-indole-3-carboxylic acid] | 30 nM | 92% | 209.3 to 209.6 °C
2 | CN1CCN(c2ccc(-c3cc4c(C(=O)O)n[nH]c4cc3Cl)cc2)CC1 [Example 106, 6-Chloro-5-(4-(4-methylpiperazin-1-yl)phenyl)-1H-indazole-3-carboxylic acid] | 73 nM | 94% | 
3 | O=C(O)c1n[nH]c2cc(Cl)c(-c3ccc(N4CCOCC4)cc3)cc12 [Example 128, 6-Chloro-5-(4-morpholinophenyl)-1H-indazole-3-carboxylic acid] | 19.8 nM | 70% | 
4 | O=C(O)c1n[nH]c2cc(Cl)c(-c3ccc(OCCO)cc3)cc12 [Example 119, 6-Chloro-5-(4-(2-hydroxyethoxy)phenyl)-1H-indazole-3-carboxylic acid] | 44.8 nM | 97% | 
5 | Cc1cc(C2(O)CCC2)ccc1-c1cc2c(C(=O)O)c[nH]c2cc1Cl [Example 40, 6-chloro-5-[4-(1-hydroxycyclobutyl)-2-methylphenyl]-1H-indole-3-carboxylic acid] | 821 nM | 78% | 
6 | O=C(O)c1n[nH]c2cc(Cl)c(-c3ccc4c(c3)CCC4)cc12 [Example 116, 6-Chloro-5-(2,3-dihydro-1H-inden-5-yl)-1H-indazole-3-carboxylic acid] | 47.8 nM | 104% | 
7 | O=C(O)c1n[nH]c2cc(Cl)c(-c3ccc(C4(CO)CCCC4)cc3)cc12 [Example 127, 6-Chloro-5-(4-(1-(hydroxymethyl)cyclopentyl)phenyl)-1H-indazole-3-carboxylic acid] | 17.2 nM | 81% | 
8 | COc1ccc(-c2cc3c(C(=O)O)n[nH]c3cc2Cl)cc1 [Example 97, 6-Chloro-5-(4-methoxyphenyl)-1H-indazole-3-carboxylic acid] | 202 nM | 94% | 
9 | N#Cc1cc(C2(O)CCC2)ccc1-c1cc2c(C(=O)O)c[nH]c2cc1Cl [Example 69, 6-chloro-5-[2-cyano-4-(1-hydroxycyclobutyl)phenyl]-1H-indole-3-carboxylic acid] | 264 nM | 74% | 
10 | O=C(O)c1c[nH]c2cc(Cl)c(-c3ccc(OC[C@@H]4CCCN4)cc3)cc12 [Example 47, 6-chloro-5-{4[(2S)-pyrrolidin-2-ylmethoxy]phenyl}-1H-indole-3-carboxylic acid] | 65.3 nM | 96% | 
11 | N#Cc1cc2[nH]cc(C(=O)O)c2cc1-c1ccc(C2(CO)CC2)cc1 [Example 23, 6-cyano-5-{4-[1-(hydroxymethyl)cyclopropyl]phenyl}-1H-indole-3-carboxylic acid] | 16 nM | 88% | 270.9 to 271.6 °C
12 | COc1ccc(-c2cc3c(C(=O)O)c[nH]c3cc2Cl)c(F)c1 [Example 44, 6-chloro-5-(2-fluoro-4-methoxyphenyl)-1H-indole-3-carboxylic acid] | 85 nM | 78% | 
13 | O=C(O)c1c[nH]c2cc(Cl)c(-c3ccc(C4CCCN4)cc3)cc12 (stereo not drawn) [Example 83, 6-chloro-5-[4-(pyrrolidin-2-yl)phenyl]-1H-indole-3-carboxylic acid] | 819 nM | 108% | 

The remaining lines, values ahead:

Row | EC50 [1] | Emax [1] | melting point | SMILES
14 | 483 nM | 46% | 240 °C (dec.) | COc1ccc(-c2cc3c(S(=O)(=O)O)c[nH]c3cc2Cl)cc1 [Example 132, 6-Chloro-5-(4-methoxyphenyl)-1H-indole-3-sulfonic acid]
15 | 305 nM | 100% | 295 °C | O=C(O)c1n[nH]c2cc(F)c(-c3ccc(C4CCOCC4)cc3)cc12 [Example 130, 6-Fluoro-5-(4-(tetrahydro-2H-pyran-4-yl)phenyl)-1H-indazole-3-carboxylic acid]
16 | 35.3 nM | 119% |  | COc1cc(-c2cc3c(C(=O)O)c[nH]c3cc2Cl)ccc1[C@H]1C[C@H](O)C1 [Example 146, 6-chloro-5-[4-(trans-3-hydroxycyclobutyl)-3-methoxyphenyl]-1H-indole-3-carboxylic acid]
17 | 40.4 nM | 117% |  | O=C(O)c1c[nH]c2cc(Cl)c(-c3ccc([C@H]4C[C@H](O)C4)cc3)cc12 [Example 138, 6-Chloro-5-[4-(trans-3-hydroxycyclobutyl)phenyl]-1H-indole-3-carboxylic acid]
18 | 31.9 nM | 98.9% |  | O=C(O)c1c[nH]c2cc(Cl)c(-c3ccc(OCCC4COC4)cc3)cc12 [Example 156, 6-chloro-5-(4-(2-(oxetan-3-yl)ethoxy)phenyl)-1H-indole-3-carboxylic acid]
19 |  | 112% |  | O=C(O)c1c[nH]c2cc(F)c(-c3ccc(C4CCCO4)cc3)c(F)c12 (stereo not drawn) [Example 152, 4,6-difluoro-5-[4-(tetrahydrofuran-2-yl)phenyl]-1H-indole-3-carboxylic acid]
20 | 11.6 nM | 76.2% |  | O=C(O)c1c[nH]c2cc(Cl)c(-c3ccc(OCCn4cccn4)cc3)cc12 [Example 180, 6-chloro-5-{4-[2-(1H-pyrazol-1-yl)ethoxy]phenyl}-1H-indole-3-carboxylic acid]
21 | 17.5 nM | 142% |  | O=C(O)c1c[nH]c2cc(Cl)c(-c3ccc(C4(CO)CCC4)cc3F)cc12 [Example 164, 6-chloro-5-{2-fluoro-4-[1-(hydroxymethyl)cyclobutyl]phenyl}-1H-indole-3-carboxylic acid]
